Assay results reported in patent US20220324909A1, “THERAPEUTIC PEPTIDES” (COHBAR, INC., priority 2019, published 2022).
Non-standard residues stand in square brackets, D forms with d. Primed or numbered codes have the meaning given here. No end group written: not given here. PEG12′ = polyethylene glycol moiety of 12 units

Experiments:
C2C12 cells = assay: Glucose utilization in cultured C2C12 cells and insulin dependence; format: cell-based, mouse; conditions: for Glucose Utilization, Percent of Control Activity No Insulin: peptide 10 μM alone, glucose in medium relative to untreated cells; for Glucose Utilization, Percent of Control Activity No Insulin / Glucose Utilization, Percent of Control Activity With Insulin: 22 h; for Glucose Utilization, Percent of Control Activity With Insulin: peptide 10 μM with 5-20 nM insulin, glucose in medium relative to insulin treated cells
Text: The effect of the peptides on glucose homeostasis can be assessed using an assay to monitor glucose utilization by cultured cells such as mouse myotubes. […] C2C12 mouse muscle cell line was purchased from Millipore Sigma (Saint Louis, Mo.). […] Three days after plating the medium was removed and with Differentiation Medium (DMEM/low glucose (1 g/L)+2% Horse Serum+antibiotics) added. […] After 5 days of differentiation, the medium was removed from myotube cultures and replaced with Assay Medium (DMEM/low glucose (1 g/L)+antibiotics). […] Following the 5 h incubation the medium was removed and fresh Assay Medium containing compounds added; 10 μM peptide in absence or presence of 5-20 nM insulin, or 1 mM metformin as a potent stimulator of glucose utilization. […] Following 22 h incubation, conditioned medium from each well was transferred to a fresh 96-well plate. Glucose concentrations in the medium were determined using a Glucose Assay kit (Abcam; Cambridge, Mass.) according to the manufacturer's instructions; absorbance measured using a Cytation 3 plate reader at 570 nm (BioTek, Winooski, Vt.). Absorbance values were expressed as percent control activity relative to untreated treated cells (no insulin) for 10 μM peptide alone or 5-20 nM insulin treated cells (with insulin) for 10 μM peptide in presence of 5-20 nM insulin. Untreated cells were used as reference for basal glucose utilization. The relative standard deviation from plate to plate of untreated control was <10%. Metformin at 1 mM was used as a potent control for increasing glucose utilization. Glucose levels for metformin (1 mM) treatment were <10% of the untreated control value. Data are presented as averages values from 2-3 independent experiments with each data point performed in triplicate.

3T3-L1 mouse adipocytes = assay: Free fatty acid levels in cultured 3T3-L1 mouse adipocytes and insulin dependence (Example 17); format: cell-based; conditions: isoproterenol 0.1 nM; for Free Fatty Acid Levels, Percent of Isoproterenol Control Activity No Insulin: peptide 10 μM alone, relative to isoproterenol treated cells; for Free Fatty Acid Levels, Percent of Isoproterenol Control Activity With Insulin: peptide 10 μM with 0.25 nM insulin, relative to 0.25 nM insulin treated cells
Experimental: The effect of the peptides on fatty acid metabolism can be assessed using an assay to monitor free fatty acid levels produced by cultured cells such as mouse adipocytes. […] Following 3 h incubation, conditioned medium from each well was transferred to a fresh 96-well plate. […] Absorbance values were expressed as percent control activity relative to 0.1 nM isoproterenol treated cells (no insulin) for 10 μM peptide alone or 0.25 nM insulin treated cells (with insulin) for 10 μM peptide in presence of 0.25 nM insulin. […] Data are presented as averages values from 2-3 independent experiments with each data point performed in triplicate.

H4-IIE cells = assay: Glucose production in cultured H4-IIE cells and insulin dependence; format: cell-based, rat; conditions: 24 h; for Glucose Production, Percent of Control Activity No Insulin: peptide 10 μM alone, relative to untreated cells; for Glucose Production, Percent of Control Activity With Insulin: peptide 10 μM with 800 μM insulin, relative to insulin treated cells
Experimental: The effect of the peptides on glucose homeostasis can be assessed using an assay to monitor glucose production by cultured cells such as rat hepatocytes. […] Following 24 h incubation, conditioned medium from each well was transferred to a fresh 96-well plate. Glucose concentrations in the medium were determined using a Glucose Assay kit (Abcam; Cambridge, Mass.) according to the manufacturer's instructions; absorbance measured using a Cytation 3 plate reader at 570 nm (BioTek, Winooski, Vt.). […] Untreated cells were used as reference for maximal glucose production. […] Insulin at 800 μM was used as a modest inhibitor glucose production. […] Data are presented as averages values from 2-4 independent experiments with each data point performed in triplicate.

Compound | Glucose Utilization, Percent of Control Activity No Insulin (C2C12 cells) | Glucose Utilization, Percent of Control Activity With Insulin (C2C12 cells) | Free Fatty Acid Levels, Percent of Isoproterenol Control Activity No Insulin (3T3-L1 mouse adipocytes) | Free Fatty Acid Levels, Percent of Isoproterenol Control Activity With Insulin (3T3-L1 mouse adipocytes) | Glucose Production, Percent of Control Activity No Insulin (H4-IIE cells) | Glucose Production, Percent of Control Activity With Insulin (H4-IIE cells) | Glucose levels, % of untreated control value (C2C12 cells; metformin 1 mM, positive control)
20 (KRRMMGMVFQCLCGA; (1)..(1) PEG12; (15)..(15) d-Ala) [compound 20] | 108% | 91% | 101% | 90.7% | 98.4% | 108.6% | 
21 (RRMMGMVFQCLCG[dA]K(PEG12′); cysteine pairing not given here) [compound 21] | 107.5% | 86% | 109% | 59.1% | 98.4% | 72.7% | 
33 (RRLLGLVFQSLCG[dA]) [compound 33] |  |  | 98% | 80% | 113.8% |  | 
34 (RXMMGMVFQSLCGA; (2)..(2) Xaa is Aib (alpha-aminoisobutyric acid); (14)..(14) D-Ala) [compound 34] |  |  | 104% | 122% | 96.9% |  | 
35 (RXLLGLVFQSLCGA; (2)..(2) Xaa is Aib (alpha-aminoisobutyric acid); (14)..(14) D-Ala) [compound 35] |  |  | 101% | 112% | 98.1% |  | 
38 (RRMMGMVEQSLCG[dA]) [compound 38] |  |  | 101% | 68% | 98.5% |  | 
39 (RRMMGMVFQSLEG[dA]) [compound 39] |  |  | 97% | 67% | 103.9% |  | 
40 (RRLLGLVEQSLCG[dA]) [compound 40] |  |  | 101% | 76% | 109.6% |  | 
41 (RRLLGLVFQSLEG[dA]) [compound 41] |  |  | 97% | 73% | 122.7% |  | 
44 (MMGMV) [compound 44] |  |  | 103% | 96% | 98.8% |  | 
45 (MMGMVF) [compound 45] |  |  | 105% | 89% | 106.9% |  | 
46 (MMGMVFQ) [compound 46] |  |  | 98% | 104% | 105.0% |  | 
47 (MMGMVFQS) [compound 47] |  |  | 101% | 93% | 108.0% |  | 
48 (MMGMVFQSL) [compound 48] |  |  | 92% | 93% | 110.0% |  | 
49 (MMGMVFQSLCG[dA]) [compound 49] |  |  | 101% | 103% | 120.1% |  | 
50 (RMMGMVF) [compound 50] |  |  | 103% | 101% | 99.8% |  | 

Compound | Glucose Utilization, Percent of Control Activity No Insulin (C2C12 cells) | Glucose Utilization, Percent of Control Activity With Insulin (C2C12 cells) | Free Fatty Acid Levels, Percent of Isoproterenol Control Activity No Insulin (3T3-L1 mouse adipocytes) | Free Fatty Acid Levels, Percent of Isoproterenol Control Activity With Insulin (3T3-L1 mouse adipocytes) | Glucose Production, Percent of Control Activity No Insulin (H4-IIE cells) | Glucose Production, Percent of Control Activity With Insulin (H4-IIE cells) | Glucose levels, % of untreated control value (C2C12 cells; metformin 1 mM, positive control)
51 (RMMGMVFQ) [compound 51] |  |  | 99% | 79% | 106.1% |  | 
52 (RMMGMVFQS) [compound 52] |  |  | 102% | 79% | 108.4% |  | 
53 (RMMGMVFQSL) [compound 53] |  |  | 101% | 81% | 91.9% |  | 
54 (RMMGMVFQSLCG[dA]) [compound 54] |  |  | 102% | 75% | 112.8% |  | 
55 (RRMMGM) [compound 55] |  |  | 100% | 90% | 92.6% |  | 
56 (RRMMGMV) [compound 56] |  |  | 99% | 94% | 97.1% |  | 
57 (RRMMGMVF) [compound 57] |  |  | 96% | 87% | 98.3% |  | 
58 (RRMMGMVFQ) [compound 58] |  |  | 110% | 114% | 114.5% |  | 
59 (RRMMGMVFQS) [compound 59] |  |  | 111% | 114% | 114.0% |  | 
60 (RRMMGMVFQSL) [compound 60] |  |  | 110% | 101% | 115.9% |  | 
61 (Ac-RRMMGMVFQSLCG[dA]) [compound 61] |  |  | 112% | 143% | 122.7% |  | 
62 (RRMMGMVFQSLCG[dA]-NH2) [compound 62] |  |  | 112% | 109% | 105.6% |  | 
63 (Ac-RRMMGMVFQSLCG[dA]-NH2) [compound 63] |  |  | 112% | 92% | 107.5% |  | 
CC[C@H](C)[C@H](NC(=O)CNC(=O)[C@@H](NC(=O)[C@@H](NC(=O)[C@H](CCCNC(=N)N)NC(=O)[C@@H](N)CCCNC(=N)N)[C@@H](C)CC)[C@@H](C)CC)C(=O)N[C@H](C(=O)N[C@@H](Cc1ccccc1)C(=O)N[C@@H](CCC(N)=O)C(=O)N[C@@H](CO)C(=O)N[C@@H](CC(C)C)C(=O)N[C@@H](CS)C(=O)NCC(=O)N[C@H](C)C(=O)O)C(C)C [compound 43] |  |  | 103% | 91% | 115.8% |  | 
CN(C)C(=N)N=C(N)N [metformin, reference compound] |  |  |  |  |  |  | < 10%
